Test results: US20210300940A1 (Merck Patent GmbH, priority 2018, published 2021)
Structures can show the parent of a compound that is named as a salt.

What was measured:
TLR7 = molecular target: T1, TLR7 (Homo sapiens, UniProt Q9NYK1); test: HEK/293 TLR7 Cell Assay; assay type: cell-based; conditions: TLR7/NFKb HEK cells, R848 agonist 10 uM final concentration, Steady-Glo readout; read-out: TLR7 potency
T1 construct: expressed in transfected cells; host or cells: HEK/293 cells carrying TLR7 and an NF-kB luciferase reporter
T1 sequence (Q9NYK1 27-1049): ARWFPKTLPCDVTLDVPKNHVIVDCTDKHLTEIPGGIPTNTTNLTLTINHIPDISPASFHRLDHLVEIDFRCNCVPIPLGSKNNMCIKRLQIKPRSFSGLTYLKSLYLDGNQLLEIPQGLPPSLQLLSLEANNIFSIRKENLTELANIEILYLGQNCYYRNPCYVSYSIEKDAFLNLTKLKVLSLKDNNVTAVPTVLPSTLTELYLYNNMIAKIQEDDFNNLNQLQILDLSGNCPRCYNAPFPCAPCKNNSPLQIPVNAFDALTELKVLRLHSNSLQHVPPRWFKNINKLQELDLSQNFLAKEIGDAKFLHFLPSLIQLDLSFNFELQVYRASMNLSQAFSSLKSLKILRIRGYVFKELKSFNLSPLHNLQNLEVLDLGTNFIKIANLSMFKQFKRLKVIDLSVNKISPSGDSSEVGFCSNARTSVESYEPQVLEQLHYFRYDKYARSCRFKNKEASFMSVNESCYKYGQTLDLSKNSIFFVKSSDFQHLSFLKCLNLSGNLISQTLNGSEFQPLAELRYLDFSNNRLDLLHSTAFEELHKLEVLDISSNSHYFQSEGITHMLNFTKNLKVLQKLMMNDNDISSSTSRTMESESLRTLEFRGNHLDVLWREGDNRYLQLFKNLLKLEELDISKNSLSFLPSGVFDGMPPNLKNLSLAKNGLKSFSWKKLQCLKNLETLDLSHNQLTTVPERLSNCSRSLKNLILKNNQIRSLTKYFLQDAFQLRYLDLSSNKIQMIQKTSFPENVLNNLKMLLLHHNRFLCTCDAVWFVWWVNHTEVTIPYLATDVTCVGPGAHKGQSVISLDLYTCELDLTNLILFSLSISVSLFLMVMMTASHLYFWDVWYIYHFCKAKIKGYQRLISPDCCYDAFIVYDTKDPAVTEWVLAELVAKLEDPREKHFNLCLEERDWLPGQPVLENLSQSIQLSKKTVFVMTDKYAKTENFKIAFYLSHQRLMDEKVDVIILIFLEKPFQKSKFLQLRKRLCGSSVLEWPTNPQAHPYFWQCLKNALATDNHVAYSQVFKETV
In short: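 Compounds added to HEK cells expressing TLR7 with an NFκB reporter 30 min ahead of 10 uM R848 challenge; luciferase signal (Steady-Glo) measured after 5 h, cells having been seeded 24 h earlier at 5000 per well.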

TLR8 = molecular target: T2, TLR8 (Homo sapiens, UniProt Q9NR97); test: HEK/293 TLR8 Cell Assay; assay type: cell-based; conditions: HEK cells, R848 agonist 30 uM final concentration, Steady-Glo readout; read-out: TLR8 potency
T2 construct: expressed in transfected cells; host or cells: HEK/293 reporter cells (NF-kB luciferase)
T2 sequence (Q9NR97 27-1041): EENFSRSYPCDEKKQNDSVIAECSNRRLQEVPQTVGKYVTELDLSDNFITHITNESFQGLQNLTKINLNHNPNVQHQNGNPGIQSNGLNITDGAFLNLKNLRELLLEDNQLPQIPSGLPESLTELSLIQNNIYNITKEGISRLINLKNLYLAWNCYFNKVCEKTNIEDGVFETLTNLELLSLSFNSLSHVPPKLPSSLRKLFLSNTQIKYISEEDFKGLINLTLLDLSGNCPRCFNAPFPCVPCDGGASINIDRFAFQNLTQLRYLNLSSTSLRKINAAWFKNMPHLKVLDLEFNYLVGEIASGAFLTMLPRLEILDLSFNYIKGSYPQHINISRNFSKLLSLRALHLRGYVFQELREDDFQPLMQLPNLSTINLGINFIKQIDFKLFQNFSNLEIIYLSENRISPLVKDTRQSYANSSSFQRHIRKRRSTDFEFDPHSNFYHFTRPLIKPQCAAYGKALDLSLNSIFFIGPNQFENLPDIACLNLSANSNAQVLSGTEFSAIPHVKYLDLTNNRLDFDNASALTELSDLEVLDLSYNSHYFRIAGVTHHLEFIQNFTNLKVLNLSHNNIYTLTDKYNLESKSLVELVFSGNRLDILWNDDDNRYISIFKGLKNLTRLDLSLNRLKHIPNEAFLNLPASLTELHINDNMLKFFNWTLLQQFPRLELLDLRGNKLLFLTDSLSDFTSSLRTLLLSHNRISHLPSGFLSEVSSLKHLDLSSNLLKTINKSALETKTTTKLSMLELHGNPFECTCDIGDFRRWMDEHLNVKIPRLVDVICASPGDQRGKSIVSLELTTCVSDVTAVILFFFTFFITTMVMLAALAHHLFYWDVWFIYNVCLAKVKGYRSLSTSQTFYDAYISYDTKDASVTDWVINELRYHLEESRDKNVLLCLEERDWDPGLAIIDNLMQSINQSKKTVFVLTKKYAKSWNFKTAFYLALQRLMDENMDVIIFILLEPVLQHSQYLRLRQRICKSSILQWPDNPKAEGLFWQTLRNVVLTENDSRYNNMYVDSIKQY

IC50 (TLR7)	IC50 (TLR8)	Compound
> 0.15 µM	< 0.075 µM	Cc1ccc(N2C[C@@H](C)C[C@@H](NC(=O)[C@@H]3CCCN3)C2)c2cccnc12 [Example 122, (2S)—N-[(3R,5S)-5-methyl-1-(8-methylquinolin-5-yl)piperidin-3-yl]pyrrolidine-2-carboxamide]
0.075 to 0.15 µM	< 0.075 µM	Cc1ncc(N2C[C@H](NC(=O)CC3CCNCC3F)C[C@H](C(F)(F)F)C2)c2cccnc12 (stereo partly drawn) [Example 136, 2-(3-Fluoro-piperidin-4-yl)-N-[(3R,5S)-1-(8-methyl-[1,7]naphthyridin-5-yl)-5-trifluoromethyl-piperidin-3-yl]-acetamide]
< 0.075 µM	< 0.075 µM	C[C@H]1C[C@@H](N)CN(c2cnc(C#N)c3nccnc23)C1 [Example 187, 8-((3R,5S)-3-Amino-5-methyl-piperidin-1-yl)-pyrido[3,4-b]pyrazine-5-carbonitrile hydrochloride]
> 0.15 µM	0.075 to 0.15 µM	Cc1ccc(N2C[C@H](NC(=O)CC3CCN(C(C)C)CC3)C[C@H](C(F)(F)F)C2)c2cccnc12 [Example 109, 2-(1-Isopropyl-piperidin-4-yl)-N-[(3R,5S)-1-(8-methyl-quinolin-5-yl)-5-trifluoromethyl-piperidin-3-yl]-acetamide]
0.075 to 0.15 µM	< 0.075 µM	C[C@@H]1CN(c2cnc(C#N)c3ncccc23)C[C@H](CN2CCC(N3CCOCC3)CC2)O1 [Example 367, 5-[(2R,6S)-2-Methyl-6-(4-morpholin-4-yl-piperidin-1-ylmethyl)-morpholin-4-yl]-[1,7]naphthyridine-8-carbonitrile]
< 0.075 µM	< 0.075 µM	Cc1ncc(N2C[C@H](NC(=O)C(F)C3CCNC3)C[C@H](C(F)(F)F)C2)c2cccnc12 (stereo partly drawn) [Example 137, 2-Fluoro-N-[(3R,5S)-1-(8-methyl-[1,7]naphthyridin-5-yl)-5-trifluoromethyl-piperidin-3-yl]-2-pyrrolidin-3-yl-acetamide]
0.075 to 0.15 µM	> 0.15 µM	(2S,6S)-4-(8-cyanoquinolin-5-yl)-N-[(4-fluoro-1-methylpiperidin-4-yl)methyl]-6-(trifluoromethyl)morpholine-2-carboxamide [Example 316]
< 0.075 µM	< 0.075 µM	CN(C)CCC(=O)N[C@@H]1C[C@H](C(F)(F)F)CN(c2ccc(C#N)c3ncccc23)C1 [Example 65, N-[(3R,5S)-1-(8-cyanoquinolin-5-yl)-5-(trifluoromethyl)piperidin-3-yl]-3-(dimethylamino)propanamide]
0.075 to 0.15 µM	> 0.15 µM	CC(=O)NCCNC(=O)[C@H]1CN(c2ccc(C#N)c3nccnc23)C[C@@H](C)O1 [Example 243, (2R,6R)-4-(8-Cyano-quinoxalin-5-yl)-6-methyl-morpholine-2-carboxylic acid (2-acetylamino-ethyl)-amide]
< 0.075 µM	< 0.075 µM	C[C@H]1C[C@@H](NC(=O)CN2CCN(C)CC2)CN(c2cnc(C#N)c3nccnc23)C1 [Example 188, N-[(3R,5S)-1-(5-Cyano-pyrido[3,4-b]pyrazin-8-yl)-5-methyl-piperidin-3-yl]-2-(4-methyl-piperazin-1-yl)-acetamide]
< 0.075 µM	< 0.075 µM	C[C@H]1C[C@@H](NC(=O)C2CCNCC2)CN(c2ccc(C(F)(F)F)c3ncccc23)C1 [Example 179, Piperidine-4-carboxylic acid [(3R,5S)-5-methyl-1-(8-trifluoromethyl-quinolin-5-yl)-piperidin-3-yl]-amide]
< 0.075 µM	< 0.075 µM	Cc1ccc(N2C[C@@H](C)C[C@@H](NC(=O)C(N)C3CC3)C2)c2cccnc12 (stereo partly drawn) [Example 133, 2-Amino-2-cyclopropyl-N-[(3R,5S)-5-methyl-1-(8-methyl-quinolin-5-yl)-piperidin-3-yl]-acetamide]
< 0.075 µM	< 0.075 µM	C[C@H]1C[C@@H](NCC2CCC(=O)N2)CN(c2ccc(C(F)(F)F)c3ncccc23)C1 (stereo partly drawn) [Example 48, 5-{[(3R,5S)-5-Methyl-1-(8-trifluoromethyl-quinolin-5-yl)-piperidin-3-ylamino]-methyl}-pyrrolidin-2-one]
> 0.15 µM	< 0.075 µM	C[C@@H]1CN(c2cnc(C(F)(F)F)c3ncccc23)C[C@H](CNC[C@@H]2CN(C)CCO2)O1 (single isomer, unassigned) [Example 386]
0.075 to 0.15 µM	< 0.075 µM	Cc1c(F)cc(N2C[C@@H](C)C[C@@H](NC(=O)[C@@H](N)CC(N)=O)C2)c2cccnc12 [Example 129, (2S)-2-amino-N-[(3R,5S)-1-(7-fluoro-8-methylquinolin-5-yl)-5-methylpiperidin-3-yl]butanediamide]
< 0.075 µM	< 0.075 µM	C[C@H](N)C(=O)N[C@@H]1C[C@H](C(F)(F)F)CN(c2ccc(C(F)(F)F)c3ncccc23)C1 [Example 171, (S)-2-Amino-N-[(3R,5S)-5-trifluoromethyl-1-(8-trifluoromethyl-quinolin-5-yl)-piperidin-3-yl]-propionamide]

Compound	IC50 (TLR7)	IC50 (TLR8)
C[C@@H]1CN(c2ccc(C#N)c3ncncc23)C[C@H](C(=O)NCC2(F)CCN(C)CC2)O1 [Example 346, (2R,6R)-4-(8-Cyano-quinazolin-5-yl)-6-methyl-morpholine-2-carboxylic acid (4-fluoro-1-methyl-piperidin-4-ylmethyl)-amide]	< 0.075 µM	< 0.075 µM
C[C@@H]1CN(c2ccc(C#N)c3nccnc23)C[C@H](C(=O)NCC2(F)CCN(C)CC2)O1 [Example 253, (2R,6R)-4-(8-Cyano-quinoxalin-5-yl)-6-methyl-morpholine-2-carboxylic acid (4-fluoro-1-methyl-piperidin-4-ylmethyl)-amide]	< 0.075 µM	< 0.075 µM
C[C@@H]1CN(c2ccc(C#N)c3nccnc23)C[C@H](C(=O)NC[C@@H]2COCCN2)O1 (single isomer, unassigned) [Example 297]	< 0.075 µM	< 0.075 µM
N#Cc1ccc(N2C[C@@H](C(=O)N[C@H]3CNC[C@H]3F)O[C@@H](C(F)(F)F)C2)c2nccnc12 (single isomer, unassigned) [Example 304]	< 0.075 µM	< 0.075 µM
C[C@H]1C[C@@H](NCC(C)(F)C(=O)O)CN(c2ccc(C#N)c3nccnc23)C1 (stereo partly drawn) [Example 15, 3-[(3R,5S)-1-(8-Cyano-quinoxalin-5-yl)-5-methyl-piperidin-3-ylamino]-2-fluoro-2-methyl-propionic acid]	< 0.075 µM	< 0.075 µM
C[C@H](O)CNC(=O)[C@H]1CN(c2ccc(C#N)c3nccnc23)C[C@@H](C(F)(F)F)O1 (single isomer, unassigned) [Example 286]	> 0.15 µM	> 0.15 µM
